Results as given in patent US20070202079A1, “Therapeutic compositions and methods useful in modulating protein tyrosine phosphatases” (priority 2006, published 2007).

Assays:
[1] = target: T1, Flag-PRL-1 (Homo sapiens, UniProt Q93096); assay: immunocomplex PTPase assay, NIH3T3 Flag-PRL-1 transfectants; format: cell-based, mouse; details: cells treated 5 min
T1 construct: expressed in transfected cells; host or cells: WM9 human melanoma cell line (pBabepuro, puromycin-selected)
Experimental: Immunocomplex PTPase assays were performed to assess the effects of sodium stibogluconate on intracellular PTPases. Cells were untreated or treated with sodium stibogluconate for 5 minutes, washed with fresh medium and then lysed in cold lysis buffer (50 mM Tris, pH 7.4; 150 mM NaCl; 1% NP40; 2 mM PMSF; 20 μg/ml of Aprotinin). The lysates were incubated with an anti-Flag antibody in immunoprecipitation assays. The immunocomplexes were collected with protein G sepharose beads (Pharmacia) and washed in cold lysis buffer for 4 times. […] C. for 18 hrs. 100 μL of malachite green solution (UBI) was added to each reaction prior to measurement of OD660 to quantify the amounts of free phosphate cleaved by the PTPases from the peptide substrate (Pathak et al., J. Immunol. 167, 3391 (2001)). The remaining 10% contents of individual samples were analyzed by SDS-PAGE/Western blotting to quantify the relative amounts of the phosphatase proteins. […]
The effects of sodium stibogluconate on intracellular PTPases were assessed using NIH3T3 or WM9 transfectants. […]

[2] = test system: Jurkat cells; assay: IFN-gamma secretion by Jurkat cells, ELISA; format: cell-based, human; details: 16 hours
Experimental: Jurkat cells were cultured in the absence or presence of various amounts of SSG for 16 hours. The cells and culture medium supernatants were separated by centrifugation (1,000 g, 10 min). The amounts of IFN-gamma in the culture medium supernatants were quantified using an ELISA kit (R.D. system, Minneapolis, Minn.) following the manufacturer's protocol.

[3] = test system: DS cells; assay: DS cell growth, MTT; format: cell-based, human; details: day 3; IFN-alpha 1,000 u/ml or sodium stibogluconate by itself
Experimental: For cell proliferation assays, cells were grown in 10% FCS culture medium containing various amounts of IFNs and/or sodium stibogluconate in 96 well plates and cultured at 37° C. for 3 or 6 days as indicated. The numbers of viable cells in proliferation assays were determined by MTT assays as described in Phatak et al., J. Immunol. 167, 3391 (2001).

[4] = test system: Renca cells; assay: Renca cell growth, MTT; format: cell-based, murine; details: SSG 6.25-200 μg/ml, 6 days; listed as SSG
Description: Renca (Murphy, G. P., and W. J. Hrushesky. 1973. A murine renal cell carcinoma. J Natl Cancer Inst 50:1013), Jurkat (Gillis, S., and J. Watson. 1980. Biochemical and biological characterization of lymphocyte regulatory molecules. V. Identification of an interleukin 2-producing human leukemia T cell line. J Exp Med 152:1709) and WM9 (Forsberg, K., I. Valyi-Nagy, C. H. Heldin, M. Herlyn, and B. Westermark. 1993. Platelet-derived growth factor (PDGF) in oncogenesis: development of a vascular connective tissue stroma in xenotransplanted human melanoma producing PDGF-BB. Proc Natl Acad Sci USA 90:393) cell lines were obtained from a colleague at the Cleveland Clinic Foundation (CCF) and cultured in RPMI 1640 medium supplemented with 10% fetal calf serum (FCS). Recombinant IL-2 (Proleukin, 22 million IU/1.3 mg, Chiron, Emeryville, Calif.) was purchased from the CCF pharmacy. […] For cell growth inhibition assays, cells were cultured in absence or presence of various amounts of SSG for 6 days with viable cells quantified by MTT assays as described elsewhere (Pathak, M. K., and T. Yi. 2001. Sodium stibogluconate is a potent inhibitor of protein tyrosine phosphatases and augments cytokine responses in hemopoietic cell lines. J Immunol 167:3391).

T1 sequence (Q93096 whole entry): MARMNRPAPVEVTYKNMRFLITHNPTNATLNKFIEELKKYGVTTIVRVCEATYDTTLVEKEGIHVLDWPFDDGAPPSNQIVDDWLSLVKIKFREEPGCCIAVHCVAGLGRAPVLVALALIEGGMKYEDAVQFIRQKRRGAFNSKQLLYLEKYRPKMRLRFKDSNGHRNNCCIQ

In the case of `O.O.O.O.O.O.O.O.O.O=C([O-])[C@@H]1[O][Sb]2([O-])([O][Sb]34([OH])[O][C@H]([C@H](O)CO)[C@H]([O]3)[C@H](C(=O)[O-])[O]4)[O][C@H]([C@H](O)CO)[C@@H]1[O]2.[Na+].[Na+].[Na+]` [sodium stibogluconate], the “PTPase activity of immunocomplexes from treated Flag-PRL-1 transfectants” value [1] is reported as “little PTPase activities”, the IFN-gamma secretion [2] is reported as “increased amounts of IFN-gamma” and the DS cell growth [3] is reported as “modest activity”. For the same molecule, the “Renca cell growth in culture” value [4] was “failed to inhibit Renca cell proliferation”.
